Experimental data from ChEMBL document CHEMBL4619774 (J Med Chem, 2020).

How the values were obtained:
[1] = Apparent permeability across apical to basolateral side in MDCK-MDR1 cells; type: ADME, cell-based, Canis lupus familiaris; details: dog
[2] = target: T1, Coagulation factor XI (Homo sapiens, UniProt P03951); assay: Inhibition of […] human plasma F11a catalytic domain expressed in Escherichia coli strain BL21(DE3) using D-Leu-Pro-Arg*Rh110-D-Pro as substrate preincubated for 60 mins followed by substrate addition and measured after 60 mins by fluorescence assay
[3] = Dose normalized Cmax in Sprague-Dawley rat at 100 mg/kg, po via gavage by HPLC-MS/MS analysis; type: ADME, organism-based; details: in vivo
[4] = Clearance in C57BL/6 mouse at 0.4 mg/kg, iv bolus injection or 3 mg/kg, po by LC-MS/MS analysis; type: ADME, organism-based; details: in vivo
[5] = AUC (0 to t) in beagle dog at 1 mg/kg, iv by HPLC-MS/MS analysis; type: ADME, organism-based, Canis lupus familiaris; details: in vivo
[6] = Half life in Sprague-Dawley rat at 1 mg/kg, iv administered as bolus dose by HPLC-MS/MS analysis; type: ADME, organism-based; details: in vivo
[7] = Tmax in C57BL/6 mouse at 0.4 mg/kg, iv bolus injection or 3 mg/kg, po by LC-MS/MS analysis; type: ADME, organism-based; details: in vivo
[8] = Oral bioavailability in Sprague-Dawley rat at 3 mg/kg via gavage by HPLC-MS/MS analysis; type: ADME, organism-based; details: in vivo
[9] = Volume of distribution at steady state in C57BL/6 mouse at 0.4 mg/kg, iv bolus injection or 3 mg/kg, po by LC-MS/MS analysis; type: ADME, organism-based; details: in vivo, read-out: Vdss
[10] = target: T1, Coagulation factor XI; assay: Inhibition of human F11a using D-Leu-Pro-Arg*Rh110-D-Pro as substrate preincubated for 60 mins followed by substrate addition and measured after 60 mins by fluorescence assay
[11] = Dose normalized Cmax in C57BL/6 mouse at 100 mg/kg, po by LC-MS/MS analysis; type: ADME, organism-based; details: in vivo
[12] = Dose normalized AUC in C57BL/6 mouse at 1 mg/kg, iv by LC-MS/MS analysis; type: ADME, organism-based; details: in vivo
[13] = target: T2, Coagulation factor VII (Homo sapiens, UniProt P08709); type: single protein
T2 sequence (P08709 whole entry): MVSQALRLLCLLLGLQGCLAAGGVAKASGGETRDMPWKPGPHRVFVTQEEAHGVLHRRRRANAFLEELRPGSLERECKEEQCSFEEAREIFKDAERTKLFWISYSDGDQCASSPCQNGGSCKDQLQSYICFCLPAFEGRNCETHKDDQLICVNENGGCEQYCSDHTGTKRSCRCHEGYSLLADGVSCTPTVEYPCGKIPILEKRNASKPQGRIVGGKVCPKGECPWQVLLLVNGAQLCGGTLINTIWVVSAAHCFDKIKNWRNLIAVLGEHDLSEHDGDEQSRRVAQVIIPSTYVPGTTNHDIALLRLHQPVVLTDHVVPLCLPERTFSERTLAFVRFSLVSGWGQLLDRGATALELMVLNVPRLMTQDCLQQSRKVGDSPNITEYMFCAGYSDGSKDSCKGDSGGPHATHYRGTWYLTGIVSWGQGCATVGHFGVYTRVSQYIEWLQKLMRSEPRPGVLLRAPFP

[14] = Oral bioavailability in beagle dog at 75 mg/kg via gavage by HPLC-MS/MS analysis; type: ADME, organism-based, Canis lupus familiaris; details: in vivo
[15] = Terminal half life in C57BL/6 mouse at 0.4 mg/kg, iv bolus injection or 3 mg/kg, po by LC-MS/MS analysis; type: ADME, organism-based; details: in vivo, read-out: beta t1/2 (converted)
[16] = Volume of distribution at steady state in Sprague-Dawley rat at 1 mg/kg, iv administered as bolus dose by HPLC-MS/MS analysis; type: ADME, organism-based; details: in vivo, read-out: Vdss
[17] = Dose normalized Cmax in Sprague-Dawley rat at 30 mg/kg, po via gavage by HPLC-MS/MS analysis; type: ADME, organism-based; details: in vivo
[18] = physchem; details: buffer, pH 7.4
[19] = Dose normalized AUC in C57BL/6 mouse at 3 mg/kg, po by LC-MS/MS analysis; type: ADME, organism-based; details: in vivo
[20] = Dose normalized AUC in C57BL/6 mouse at 100 mg/kg, po by LC-MS/MS analysis; type: ADME, organism-based; details: in vivo
[21] = target: Prothrombin (Homo sapiens, UniProt P00734); type: single protein
[22] = target: Bile salt export pump (Homo sapiens, UniProt O95342); assay: Inhibition of BSEP (unknown origin)
[23] = Tmax in C57BL/6 mouse at 100 mg/kg, po by LC-MS/MS analysis; type: ADME, organism-based; details: in vivo
[24] = Oral bioavailability in Sprague-Dawley rat at 30 mg/kg via gavage by HPLC-MS/MS analysis; type: ADME, organism-based; details: in vivo
[25] = Oral bioavailability in beagle dog at 10 mg/kg via gavage by HPLC-MS/MS analysis; type: ADME, organism-based, Canis lupus familiaris; details: in vivo
[26] = Dose normalized Cmax in beagle dog at 75 mg/kg, po via gavage by HPLC-MS/MS analysis; type: ADME, organism-based, Canis lupus familiaris; details: in vivo
[27] = Dose normalized AUC (0 to t) in beagle dog at 10 mg/kg, po via gavage by HPLC-MS/MS analysis; type: ADME, organism-based, Canis lupus familiaris; details: in vivo
[28] = test system: Plasma; assay: Effect on coagulation in human plasma assessed as concentration required to double the prothrombin time by thromboplastin-DS reagent based automated coagulometric method; type: ADME, cell-free
[29] = Clearance in Sprague-Dawley rat at 1 mg/kg, iv by HPLC-MS/MS analysis; type: ADME, organism-based; details: in vivo
[30] = AUC (0 to t) in Sprague-Dawley rat at 1 mg/kg, iv administered as bolus dose by HPLC-MS/MS analysis; type: ADME, organism-based; details: in vivo
[31] = Efflux ratio of apparent permeability from basolateral to apical side over apical to basolateral side in MDCK-MDR1 cells; type: ADME, cell-based, Canis lupus familiaris; details: dog
[32] = Dose normalized Cmax in Sprague-Dawley rat at 3 mg/kg, po via gavage by HPLC-MS/MS analysis; type: ADME, organism-based; details: in vivo
[33] = Dose normalized AUC (0 to t) in Sprague-Dawley rat at 100 mg/kg, po via gavage by HPLC-MS/MS analysis; type: ADME, organism-based; details: in vivo
[34] = target: Plasma kallikrein (Homo sapiens, UniProt P03952); type: single protein
[35] = Dose normalized AUC (0 to t) in beagle dog at 75 mg/kg, po via gavage by HPLC-MS/MS analysis; type: ADME, organism-based, Canis lupus familiaris; details: in vivo
[36] = target: Urokinase-type plasminogen activator (Homo sapiens, UniProt P00749); type: single protein
[37] = target: Plasminogen (Homo sapiens, UniProt P00747); type: single protein
[38] = Dose normalized Cmax in beagle dog at 10 mg/kg, po via gavage by HPLC-MS/MS analysis; type: ADME, organism-based, Canis lupus familiaris; details: in vivo
[39] = Dose normalized AUC (0 to t) in Sprague-Dawley rat at 30 mg/kg, po via gavage by HPLC-MS/MS analysis; type: ADME, organism-based; details: in vivo

T1 sequence (P03951 19-387 limits assumed): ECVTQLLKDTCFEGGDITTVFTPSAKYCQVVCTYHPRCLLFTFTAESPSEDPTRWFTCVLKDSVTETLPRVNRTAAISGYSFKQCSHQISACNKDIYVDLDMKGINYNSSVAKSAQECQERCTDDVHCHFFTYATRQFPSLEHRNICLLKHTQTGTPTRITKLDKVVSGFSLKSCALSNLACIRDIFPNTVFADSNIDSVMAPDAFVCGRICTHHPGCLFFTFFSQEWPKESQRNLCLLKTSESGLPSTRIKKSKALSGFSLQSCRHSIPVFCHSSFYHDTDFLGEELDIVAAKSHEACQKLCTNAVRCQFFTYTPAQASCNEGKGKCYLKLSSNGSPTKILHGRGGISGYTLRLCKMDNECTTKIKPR
T1 sequence (P03951 388-625 limits assumed): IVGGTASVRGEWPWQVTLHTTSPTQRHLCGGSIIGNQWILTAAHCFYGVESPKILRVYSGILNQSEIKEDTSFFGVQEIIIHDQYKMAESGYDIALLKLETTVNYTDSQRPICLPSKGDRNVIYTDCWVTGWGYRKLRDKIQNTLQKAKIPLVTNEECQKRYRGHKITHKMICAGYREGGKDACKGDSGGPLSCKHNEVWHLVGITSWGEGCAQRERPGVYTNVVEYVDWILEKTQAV
Chain of Plasma kallikrein (P03952 20-390 limits assumed): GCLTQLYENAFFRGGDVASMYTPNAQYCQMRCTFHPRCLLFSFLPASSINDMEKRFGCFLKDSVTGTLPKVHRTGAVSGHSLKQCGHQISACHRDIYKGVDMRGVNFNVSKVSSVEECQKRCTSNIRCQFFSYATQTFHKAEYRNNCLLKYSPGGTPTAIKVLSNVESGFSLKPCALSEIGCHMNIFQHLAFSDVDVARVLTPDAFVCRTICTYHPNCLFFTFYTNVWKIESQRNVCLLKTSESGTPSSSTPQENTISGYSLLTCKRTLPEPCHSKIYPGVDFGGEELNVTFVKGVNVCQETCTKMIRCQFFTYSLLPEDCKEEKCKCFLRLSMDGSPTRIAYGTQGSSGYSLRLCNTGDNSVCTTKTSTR
Chain of Plasma kallikrein (P03952 391-638 limits assumed): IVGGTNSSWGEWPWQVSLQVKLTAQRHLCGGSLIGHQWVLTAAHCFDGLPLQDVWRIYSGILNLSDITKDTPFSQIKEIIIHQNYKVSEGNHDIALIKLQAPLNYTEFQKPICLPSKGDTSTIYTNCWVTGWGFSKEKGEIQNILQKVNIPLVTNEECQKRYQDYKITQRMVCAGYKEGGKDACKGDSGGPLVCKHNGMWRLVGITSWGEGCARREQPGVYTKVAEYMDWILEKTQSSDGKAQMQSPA
Chain of Plasminogen (P00747 97-580 limits assumed): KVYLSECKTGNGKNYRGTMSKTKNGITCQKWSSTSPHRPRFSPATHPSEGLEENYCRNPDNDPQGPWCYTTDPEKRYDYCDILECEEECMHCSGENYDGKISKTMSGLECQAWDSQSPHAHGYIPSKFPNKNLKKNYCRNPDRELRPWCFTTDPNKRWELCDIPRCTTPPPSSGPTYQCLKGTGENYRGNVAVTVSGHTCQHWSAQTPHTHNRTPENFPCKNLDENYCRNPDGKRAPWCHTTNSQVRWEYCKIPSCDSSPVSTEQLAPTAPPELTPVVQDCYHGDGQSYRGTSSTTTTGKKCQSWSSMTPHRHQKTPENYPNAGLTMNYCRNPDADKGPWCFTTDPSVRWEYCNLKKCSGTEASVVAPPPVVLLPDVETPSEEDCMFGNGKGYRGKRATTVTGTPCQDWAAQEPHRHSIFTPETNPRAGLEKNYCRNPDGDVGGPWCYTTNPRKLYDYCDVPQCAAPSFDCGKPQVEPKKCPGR
Chain of Plasminogen (P00747 581-810 limits assumed): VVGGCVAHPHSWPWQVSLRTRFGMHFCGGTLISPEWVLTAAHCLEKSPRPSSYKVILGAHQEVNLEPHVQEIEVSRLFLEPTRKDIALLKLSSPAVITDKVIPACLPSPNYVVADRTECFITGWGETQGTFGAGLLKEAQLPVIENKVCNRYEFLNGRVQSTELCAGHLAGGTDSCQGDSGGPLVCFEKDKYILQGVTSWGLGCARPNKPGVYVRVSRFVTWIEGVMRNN
Chain of Bile salt export pump (O95342 whole entry): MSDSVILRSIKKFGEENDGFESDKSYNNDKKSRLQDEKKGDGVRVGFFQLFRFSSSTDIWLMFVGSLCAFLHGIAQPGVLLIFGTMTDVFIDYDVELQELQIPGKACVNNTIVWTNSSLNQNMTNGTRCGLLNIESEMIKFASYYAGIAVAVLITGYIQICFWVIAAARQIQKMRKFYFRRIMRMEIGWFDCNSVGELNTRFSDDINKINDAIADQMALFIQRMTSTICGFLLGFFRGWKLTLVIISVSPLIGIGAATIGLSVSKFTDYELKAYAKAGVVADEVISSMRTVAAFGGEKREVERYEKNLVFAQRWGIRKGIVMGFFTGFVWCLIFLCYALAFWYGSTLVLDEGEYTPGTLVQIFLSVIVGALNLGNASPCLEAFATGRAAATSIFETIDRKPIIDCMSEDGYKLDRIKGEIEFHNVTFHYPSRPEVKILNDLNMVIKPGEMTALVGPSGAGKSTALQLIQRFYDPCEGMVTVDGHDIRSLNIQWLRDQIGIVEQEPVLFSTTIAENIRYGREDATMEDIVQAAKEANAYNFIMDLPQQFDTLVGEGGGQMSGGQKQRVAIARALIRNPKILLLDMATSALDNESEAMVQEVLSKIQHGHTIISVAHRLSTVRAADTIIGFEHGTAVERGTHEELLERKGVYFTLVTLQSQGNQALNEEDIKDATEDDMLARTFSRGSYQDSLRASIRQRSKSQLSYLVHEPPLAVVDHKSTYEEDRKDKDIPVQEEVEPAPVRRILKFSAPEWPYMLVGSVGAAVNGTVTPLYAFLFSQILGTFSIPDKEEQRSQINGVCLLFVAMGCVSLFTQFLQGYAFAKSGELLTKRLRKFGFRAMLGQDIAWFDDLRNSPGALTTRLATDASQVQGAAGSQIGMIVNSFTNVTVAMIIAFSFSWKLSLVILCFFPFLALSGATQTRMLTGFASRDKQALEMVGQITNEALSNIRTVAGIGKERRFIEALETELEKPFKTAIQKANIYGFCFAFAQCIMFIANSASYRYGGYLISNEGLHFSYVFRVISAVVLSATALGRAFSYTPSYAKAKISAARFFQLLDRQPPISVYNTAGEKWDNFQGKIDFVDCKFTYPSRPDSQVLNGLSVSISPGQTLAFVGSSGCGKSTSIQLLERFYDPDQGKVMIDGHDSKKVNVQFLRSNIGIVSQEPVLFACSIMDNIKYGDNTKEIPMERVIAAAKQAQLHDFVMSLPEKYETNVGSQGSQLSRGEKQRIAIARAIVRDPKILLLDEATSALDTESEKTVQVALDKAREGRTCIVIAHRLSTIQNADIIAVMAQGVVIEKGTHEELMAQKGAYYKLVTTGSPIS

CC(C)c1cc(-c2ccc3c(c2)[C@H](N)CO3)cc([C@H](O)Cn2ccc3cccc(C(=O)O)c32)c1
Papp A→B [1]: 0.4 ×10⁻⁶ cm/s | IC50 [2]: 0.01 µM | Cmax/dose [3]: 323 nM | clearance [4]: 11 mL/min/kg | AUC(0-t) [5]: 10.7 µM·h | half-life [6]: 6.4 h | Tmax [7]: 1 h | bioavailability [8]: 10% | Vd [9]: 0.57 L/kg | IC50 [10]: 0.0004 µM | Cmax/dose [11]: 26795 nM | AUC/dose [12]: 3264 nM·h | IC50 [13]: 3.65 µM | bioavailability [14]: 21% | half-life [15]: 3.73 h | Vd [16]: 1.3 L/kg | Cmax/dose [17]: 143 nM | logD [18]: 2.2 | AUC/dose [19]: 1297 nM·h | AUC/dose [20]: 260215 nM·h | IC50 [21]: 2.57 µM | IC50 [22]: 28 µM | Tmax [23]: 4 h | bioavailability [24]: 19% | bioavailability [25]: 5% | Cmax/dose [26]: 504 nM | AUCt/dose [27]: 560 nM·h | 2PT [28]: 28.7 µM | clearance [29]: 9.4 mL/min/kg | AUC(0-t) [30]: 3.33 µM·h | efflux ratio [31]: 21.5 | Cmax/dose [32]: 77 nM | AUCt/dose [33]: 1770 nM·h | IC50 [34]: 0.001 µM | AUCt/dose [35]: 2200 nM·h | IC50 [36]: 0.17 µM | IC50 [37]: 1.89 µM | Cmax/dose [38]: 217 nM | AUCt/dose [39]: 621 nM·h
